Reference: US10988477B2 (Merck Patent GmbH, priority 2018, dated 2021)

What was measured:
[1] = target: intracellular GCN2 (phosphorylation of the GCN2 substrate eIF2α) (Homo sapiens, UniProt Q9P2K8); assay: GCN2 cellular inhibition assay (AlphaScreen SureFire P-eIF2α Ser51, borrelidin-treated U2OS cells); assay type: cell-based; conditions: compounds of Formula IV; biomarker assay, phosphorylated eIF2α Ser51 in borrelidin-treated U2OS cells
Summary of the method: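 Read-out: AlphaScreen SureFire phospho-eIF2α (Ser51) signal in U2OS lysates. Cells get 4-fold compound dilutions (top 40 μM final) plus 10 μM borrelidin, 1 h, 37 °C. Percent inhibition is relative to borrelidin-alone controls.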

[2] = target: GCN2 kinase (Homo sapiens, UniProt Q9P2K8); assay: GCN2 enzyme inhibition assay (Transcreener ADP2 fluorescence polarization); assay type: biochemical; conditions: Enzyme activity for compounds of Formula IV; Ki(app), 280 μM ATP, 25° C.
Sequence of GCN2 kinase (Q9P2K8 whole entry): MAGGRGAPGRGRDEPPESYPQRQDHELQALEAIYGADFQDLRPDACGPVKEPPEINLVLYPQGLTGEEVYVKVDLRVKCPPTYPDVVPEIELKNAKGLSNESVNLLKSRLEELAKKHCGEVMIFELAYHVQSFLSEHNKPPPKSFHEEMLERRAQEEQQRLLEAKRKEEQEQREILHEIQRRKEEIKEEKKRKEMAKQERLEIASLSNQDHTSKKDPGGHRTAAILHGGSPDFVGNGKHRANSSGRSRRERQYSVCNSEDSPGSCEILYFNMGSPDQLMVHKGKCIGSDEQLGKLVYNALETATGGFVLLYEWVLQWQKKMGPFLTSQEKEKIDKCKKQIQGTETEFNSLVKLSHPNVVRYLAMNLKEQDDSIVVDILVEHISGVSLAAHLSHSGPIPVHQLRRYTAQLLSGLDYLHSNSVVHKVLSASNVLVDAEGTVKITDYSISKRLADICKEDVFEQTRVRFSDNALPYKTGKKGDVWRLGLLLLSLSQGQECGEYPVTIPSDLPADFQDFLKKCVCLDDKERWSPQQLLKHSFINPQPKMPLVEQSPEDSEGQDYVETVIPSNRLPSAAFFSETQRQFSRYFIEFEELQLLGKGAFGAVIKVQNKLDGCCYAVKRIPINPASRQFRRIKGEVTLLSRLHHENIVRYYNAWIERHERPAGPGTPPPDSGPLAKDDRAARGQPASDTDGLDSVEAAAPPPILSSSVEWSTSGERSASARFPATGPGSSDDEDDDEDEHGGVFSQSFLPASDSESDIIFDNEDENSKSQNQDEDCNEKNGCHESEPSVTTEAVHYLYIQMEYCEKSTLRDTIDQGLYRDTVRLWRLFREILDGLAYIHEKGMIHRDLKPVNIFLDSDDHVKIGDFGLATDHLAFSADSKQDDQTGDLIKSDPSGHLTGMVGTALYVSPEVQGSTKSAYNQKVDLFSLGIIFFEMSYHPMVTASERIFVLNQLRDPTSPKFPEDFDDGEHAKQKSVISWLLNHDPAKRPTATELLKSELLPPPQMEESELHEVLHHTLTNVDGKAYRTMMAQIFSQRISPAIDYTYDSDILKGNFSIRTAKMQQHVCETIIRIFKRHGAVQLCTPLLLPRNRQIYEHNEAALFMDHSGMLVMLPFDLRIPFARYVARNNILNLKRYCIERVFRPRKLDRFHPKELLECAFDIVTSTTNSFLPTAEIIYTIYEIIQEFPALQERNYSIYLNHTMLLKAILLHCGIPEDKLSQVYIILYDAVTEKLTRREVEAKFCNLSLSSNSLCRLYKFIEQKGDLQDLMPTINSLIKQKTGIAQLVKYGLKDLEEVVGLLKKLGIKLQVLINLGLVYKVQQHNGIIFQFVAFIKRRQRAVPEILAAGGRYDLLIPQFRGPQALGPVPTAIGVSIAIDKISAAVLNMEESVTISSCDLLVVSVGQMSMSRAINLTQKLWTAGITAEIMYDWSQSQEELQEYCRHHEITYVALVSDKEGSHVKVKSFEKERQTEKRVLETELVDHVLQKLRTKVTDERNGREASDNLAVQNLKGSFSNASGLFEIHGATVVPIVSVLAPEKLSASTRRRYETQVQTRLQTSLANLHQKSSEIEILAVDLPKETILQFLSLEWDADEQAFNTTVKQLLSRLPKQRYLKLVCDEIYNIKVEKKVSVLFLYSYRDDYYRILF
Summary of the method: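 Kinase activity is followed as ADP formation, measured by fluorescence polarization, using 4 nM enzyme with 280 μM ATP and 200 μM (RS)7 peptide at pH 7.5 and 25 °C for 1 h. Values come from a non-linear tight-binding fit.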

Sequence of intracellular GCN2 (phosphorylation of the GCN2 substrate eIF2α) (Q9P2K8 whole entry): as above

SMILES | IC50 [1] [µM] | Ki [2] [µM]
CNC(=O)C1CCCN(c2ccnc(-c3cnc4cnc(C(F)F)cn34)n2)C1 (centres unmarked) [IV-44, 1-(2-(6-(Difluoromethyl)imidazo[1,2-a]pyrazin-3-yl)pyrimidin-4-yl)-N-methylpiperidine-3-carboxamide] | > 5 | 0.1 to 1
NC(=O)CCC1CCCN(c2ccnc(-c3cnc4cnc(C(F)F)cn34)n2)C1 (centres unmarked) [IV-45, 3-(1-(2-(6-(Difluoromethyl)imidazo[1,2-a]pyrazin-3-yl)pyrimidin-4-yl)piperidin-3-yl)propanamide] | > 5 | 0.1 to 1
CC1CN(c2nccc(-c3cnc4cnc(C(F)F)cn34)n2)CC(CNS(C)(=O)=O)C1(F)F (centres unmarked) [IV-46, N-((1-(4-(6-(Difluoromethyl)imidazo[1,2-a]pyrazin-3-yl)pyrimidin-2-yl)-4,4-difluoro-5-methylpiperidin-3-yl)methyl)methanesulfonamide] | > 5 | 0.1 to 1
NC(=O)C1CN(c2ccnc(-c3cnc4cnc(C(F)F)cn34)n2)CCO1 (centres unmarked) [IV-48, 4-(2-(6-(Difluoromethyl)imidazo[1,2-a]pyrazin-3-yl)pyrimidin-4-yl)morpholine-2-carboxamide] | > 5 | 0.1 to 1
O=C1CCN(c2ccnc(-c3cnc4cnc(C(F)F)cn34)n2)CCN1 [IV-49, 1-(2-(6-(Difluoromethyl)imidazo[1,2-a]pyrazin-3-yl)pyrimidin-4-yl)-1,4-diazepan-5-one] | > 5 | 0.1 to 1
NC(=O)[C@H]1CCCN(c2ccnc(-c3cnc4cnc(C(F)F)cn34)n2)C1 [IV-50, (S)-1-(2-(6-(Difluoromethyl)imidazo[1,2-a]pyrazin-3-yl)pyrimidin-4-yl)piperidine-3-carboxamide] | 0.5 to 5 | 0.01 to 0.1
FC(F)c1cn2c(-c3nccc(N4CCCC(c5nn[nH]n5)C4)n3)cnc2cn1 (centres unmarked) [IV-51, 3-(4-(3-(2H-Tetrazol-5-yl)piperidin-1-yl)pyrimidin-2-yl)-6-(difluoromethyl)imidazo[1,2-a]pyrazine] | > 5 | 0.1 to 1
FC(F)c1cn2c(-c3nccc(N4CCCC(c5cccnc5)C4)n3)cnc2cn1 (centres unmarked) [IV-52, 6-(Difluoromethyl)-3-(4-(3-(pyridin-3-yl)piperidin-1-yl)pyrimidin-2-yl)imidazo[1,2-a]pyrazine] | > 5 | 0.1 to 1
FC(F)c1cn2c(-c3nccc(N4CCCC(c5c[nH]cn5)C4)n3)cnc2cn1 (centres unmarked) [IV-53, 3-(4-(3-(1H-Imidazol-4-yl)piperidin-1-yl)pyrimidin-2-yl)-6-(difluoromethyl)imidazo[1,2-a]pyrazine] | 0.5 to 5 | 0.01 to 0.1
CC1C(C(N)=O)CCCN1c1ccnc(-c2cnc3cnc(C(F)F)cn23)n1 (centres unmarked) [IV-54, 1-(2-(6-(Difluoromethyl)imidazo[1,2-a]pyrazin-3-yl)pyrimidin-4-yl)-2-methylpiperidine-3-carboxamide] | 0.5 to 5 | 0.01 to 0.1
NC(=O)C1CCCN(c2cccc(-c3cnc4cnc(C(F)F)cn34)n2)C1 (centres unmarked) [IV-55, 1-(6-(6-(Difluoromethyl)imidazo[1,2-a]pyrazin-3-yl)pyridin-2-yl)piperidine-3-carboxamide] | 0.5 to 5 | 0.01 to 0.1
NS(=O)(=O)C1CCCN(c2ccnc(-c3cnc4cnc(C(F)F)cn34)n2)C1 (centres unmarked) [IV-56, 1-(2-(6-(Difluoromethyl)imidazo[1,2-a]pyrazin-3-yl)pyrimidin-4-yl)piperidine-3-sulfonamide] | > 5 | 0.1 to 1
CC1(C(N)=O)CCCN(c2ccnc(-c3cnc4cnc(C(F)F)cn34)n2)C1 (centres unmarked) [IV-57, 1-(2-(6-(Difluoromethyl)imidazo[1,2-a]pyrazin-3-yl)pyrimidin-4-yl)-3-methylpiperidine-3-carboxamide] | > 5 | 0.1 to 1
FC(F)c1cn2c(-c3nccc(N4CCCC(c5cn[nH]c5)C4)n3)cnc2cn1 (centres unmarked) [IV-58, 3-(4-(3-(1H-Pyrazol-4-yl)piperidin-1-yl)pyrimidin-2-yl)-6-(difluoromethyl)imidazo[1,2-a]pyrazine] | 0.5 to 5 | 0.01 to 0.1
FC(F)(F)c1cn2c(-c3nccc(N4CCCC(c5cn[nH]c5)C4)n3)cnc2cn1 (centres unmarked) [IV-59, 3-(4-(3-(1H-Pyrazol-4-yl)piperidin-1-yl)pyrimidin-2-yl)-6-(trifluoromethyl)imidazo[1,2-a]pyrazine] | < 0.5 | < 0.01
NC(=O)[C@H]1CCCN(c2ccnc(-c3cnc4cnc(C(F)(F)F)cn34)n2)C1 [IV-60, (S)-1-(2-(6-(Trifluoromethyl)imidazo[1,2-a]pyrazin-3-yl)pyrimidin-4-yl)piperidine-3-carboxamide] | 0.5 to 5 | < 0.01
CC(NS(C)(=O)=O)C1CN(c2ccnc(-c3cnc4cnc(C(F)F)cn34)n2)CCO1 (centres unmarked) [IV-61, N-(1-(4-(2-(6-(Difluoromethyl)imidazo[1,2-a]pyrazin-3-yl)pyrimidin-4-yl)morpholin-2-yl)ethyl)methanesulfonamide] | > 5 | 0.1 to 1
CC(NS(C)(=O)=O)C1CN(c2ccnc(-c3cnc4cnc(C(F)F)cn34)n2)CCO1 (centres unmarked) [IV-62, N-(1-(4-(2-(6-(Difluoromethyl)imidazo[1,2-a]pyrazin-3-yl)pyrimidin-4-yl)morpholin-2-yl)ethyl)methanesulfonamide] | > 5 | 0.1 to 1
NC(=O)C1CCN(c2ccnc(-c3cnc4cnc(C(F)F)cn34)n2)C1 (centres unmarked) [IV-63, 1-(2-(6-(Difluoromethyl)imidazo[1,2-a]pyrazin-3-yl)pyrimidin-4-yl)pyrrolidine-3-carboxamide] | > 5 | 0.1 to 1
FC(F)c1cn2c(-c3nccc(N4CCC(c5cc[nH]n5)C4)n3)cnc2cn1 (centres unmarked) [IV-64, 3-(4-(3-(1H-Pyrazol-3-yl)pyrrolidin-1-yl)pyrimidin-2-yl)-6-(difluoromethyl)imidazo[1,2-a]pyrazine] | > 5 | 0.1 to 1
Cn1cc(C2CCN(c3ccnc(-c4cnc5cnc(C(F)F)cn45)n3)C2)cn1 (centres unmarked) [IV-65, 6-(Difluoromethyl)-3-(4-(3-(1-methyl-1H-pyrazol-4-yl)pyrrolidin-1-yl)pyrimidin-2-yl)imidazo[1,2-a]pyrazine] | > 5 | 0.1 to 1
FC(F)c1cn2c(-c3nccc(N4CCC(c5c[nH]cn5)C4)n3)cnc2cn1 (centres unmarked) [IV-67, 3-(4-(3-(1H-Imidazol-4-yl)pyrrolidin-1-yl)pyrimidin-2-yl)-6-(difluoromethyl)imidazo[1,2-a]pyrazine] | > 5 | 0.1 to 1
FC(F)c1cn2c(-c3nccc(N4CCC(c5ccncc5)C4)n3)cnc2cn1 (centres unmarked) [IV-68, 6-(Difluoromethyl)-3-(4-(3-(pyridin-4-yl)pyrrolidin-1-yl)pyrimidin-2-yl)imidazo[1,2-a]pyrazine] | > 5 | 0.1 to 1
O=C1NCCC12CCN(c1ccnc(-c3cnc4cnc(C(F)F)cn34)n1)C2 (centres unmarked) [IV-69, 7-(2-(6-(Difluoromethyl)imidazo[1,2-a]pyrazin-3-yl)pyrimidin-4-yl)-2,7-di azaspiro[4.4]nonan-1-one] | > 5 | 0.1 to 1
CS(=O)(=O)NC1CCN(c2ccnc(-c3cnc4cnc(C(F)F)cn34)n2)C1 (centres unmarked) [IV-70, N-(1-(2-(6-(Difluoromethyl)imidazo[1,2-a]pyrazin-3-yl)pyrimidin-4-yl)pyrrolidin-3-yl)methanesulfonamide] | > 5 | 0.1 to 1
